Measurements taken from ChEMBL document CHEMBL5678795 (Eur J Pharmacol, 1999).
Activity calls are given as the source filed them. No cut-off for these calls is given here.

Legend:
[1] = target: T1, Endothelin-1 receptor (Rattus norvegicus) (UniProt P26684); experiment: In vivo antagonist activity to ETA receptor in endothelin-1 induced Sprague-Dawley rat assessed as inhibition of peak blood pressure administered for 1 to 4 hrs; format: functional, organism-based; conditions: dose 3-100 mg/kg, route po, time 1-4 hrs
T1 sequence (whole entry): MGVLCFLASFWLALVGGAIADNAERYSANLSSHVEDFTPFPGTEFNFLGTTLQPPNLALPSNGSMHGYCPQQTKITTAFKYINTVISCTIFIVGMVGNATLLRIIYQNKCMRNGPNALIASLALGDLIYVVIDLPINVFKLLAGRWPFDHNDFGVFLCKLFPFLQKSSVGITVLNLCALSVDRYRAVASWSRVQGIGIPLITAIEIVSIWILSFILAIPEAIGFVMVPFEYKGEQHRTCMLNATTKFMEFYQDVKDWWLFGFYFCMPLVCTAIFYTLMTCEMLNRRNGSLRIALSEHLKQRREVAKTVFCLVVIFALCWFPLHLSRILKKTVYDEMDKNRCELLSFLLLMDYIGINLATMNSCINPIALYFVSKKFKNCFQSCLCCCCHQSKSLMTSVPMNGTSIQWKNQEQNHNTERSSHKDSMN

Rattus norvegicus [2] = species on record: Rattus norvegicus; experiment: Displacement of [3H]GABA from rat brain GABA receptor at 10 uM incubated for 60 mins by radiometric based scintillation counter assay relative to control; format: tissue-based
[3] = Half life in Sprague-Dawley rat at 10 mg/kg, po administered for 12 hrs by HPLC analysis; format: ADME, organism-based; conditions: in vivo
Homo sapiens [4] = species on record: Homo sapiens; experiment: Displacement of [3H]BRL 43694 from human recombinant 5-Hydroxytryptamine 3 at 10 uM incubated for 120 mins by radiometric based scintillation counter assay relative to control
[5] = Oral bioavailability in Sprague-Dawley rat at 10 mg/kg administered for 12 hrs by HPLC analysis; format: ADME, organism-based; conditions: in vivo
[6] = target: Neuropeptide Y receptor type 1 (Homo sapiens) (UniProt P25929); experiment: Displacement of [125I]peptide YY from human recombinant Y1 receptor at 10 uM incubated for 120 mins by radiometric based scintillation counter assay relative to control
Sequence of Neuropeptide Y receptor type 1 (Homo sapiens) (P25929 whole entry): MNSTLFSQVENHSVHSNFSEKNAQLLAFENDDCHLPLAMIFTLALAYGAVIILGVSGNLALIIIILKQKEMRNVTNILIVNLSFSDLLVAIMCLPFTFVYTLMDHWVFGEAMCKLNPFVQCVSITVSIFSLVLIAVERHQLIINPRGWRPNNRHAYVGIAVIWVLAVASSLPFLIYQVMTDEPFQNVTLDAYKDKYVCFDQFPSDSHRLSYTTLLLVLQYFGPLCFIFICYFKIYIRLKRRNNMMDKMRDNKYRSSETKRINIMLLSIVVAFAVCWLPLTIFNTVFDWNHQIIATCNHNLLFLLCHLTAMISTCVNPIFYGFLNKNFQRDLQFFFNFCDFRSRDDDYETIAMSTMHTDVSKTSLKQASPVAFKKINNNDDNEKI

[7] = target: Sodium-dependent noradrenaline transporter (Homo sapiens) (UniProt P23975); experiment: Inhibition of human norepinephrine expressed in CHO cells at 10 uM incubated for 180 mins by radiometric based scintillation counter assay relative to control; format: cell-based
Sequence of Sodium-dependent noradrenaline transporter (Homo sapiens) (P23975 whole entry): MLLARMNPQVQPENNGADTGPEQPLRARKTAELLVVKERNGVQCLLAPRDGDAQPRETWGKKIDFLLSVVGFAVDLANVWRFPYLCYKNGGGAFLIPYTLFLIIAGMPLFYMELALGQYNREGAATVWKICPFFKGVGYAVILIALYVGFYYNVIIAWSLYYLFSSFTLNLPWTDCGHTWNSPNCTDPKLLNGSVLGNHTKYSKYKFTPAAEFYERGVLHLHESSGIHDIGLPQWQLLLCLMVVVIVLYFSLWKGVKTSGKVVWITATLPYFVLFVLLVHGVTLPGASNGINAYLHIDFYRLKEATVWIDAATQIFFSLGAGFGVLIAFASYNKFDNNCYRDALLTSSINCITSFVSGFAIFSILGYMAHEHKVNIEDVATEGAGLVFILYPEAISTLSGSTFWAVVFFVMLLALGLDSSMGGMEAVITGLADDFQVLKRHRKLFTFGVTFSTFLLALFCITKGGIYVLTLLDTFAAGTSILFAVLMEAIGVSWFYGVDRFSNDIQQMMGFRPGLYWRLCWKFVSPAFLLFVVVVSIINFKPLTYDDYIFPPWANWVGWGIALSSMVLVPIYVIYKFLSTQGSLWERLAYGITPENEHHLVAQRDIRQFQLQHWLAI

[8] = target: Type-1 angiotensin II receptor (Homo sapiens) (UniProt P30556); experiment: Displacement of [125I][Sar1,Ile8]-AT-II from human recombinant angiotensin AT1 receptor at 10 uM incubated for 120 mins by radiometric based scintillation counter assay relative to control
Sequence of Type-1 angiotensin II receptor (Homo sapiens) (P30556 whole entry): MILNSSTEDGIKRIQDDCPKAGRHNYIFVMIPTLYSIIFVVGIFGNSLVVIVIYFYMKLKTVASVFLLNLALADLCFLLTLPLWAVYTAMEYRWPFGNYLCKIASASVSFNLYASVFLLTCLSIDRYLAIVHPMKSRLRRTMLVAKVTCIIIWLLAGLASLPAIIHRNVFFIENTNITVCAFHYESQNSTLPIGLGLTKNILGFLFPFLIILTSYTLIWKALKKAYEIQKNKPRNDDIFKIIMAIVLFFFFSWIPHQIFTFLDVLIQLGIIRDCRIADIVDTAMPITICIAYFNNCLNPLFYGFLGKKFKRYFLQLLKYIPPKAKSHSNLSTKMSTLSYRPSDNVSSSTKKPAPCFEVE

[9] = target: Cannabinoid receptor 2 (Homo sapiens) (UniProt P34972); experiment: Displacement of [3H]WIN 55212-2 from human recombinant cannabinoid CB2 receptor at 10 uM incubated for 120 mins by radiometric based scintillation counter assay relative to control
Sequence of Cannabinoid receptor 2 (Homo sapiens) (P34972 whole entry): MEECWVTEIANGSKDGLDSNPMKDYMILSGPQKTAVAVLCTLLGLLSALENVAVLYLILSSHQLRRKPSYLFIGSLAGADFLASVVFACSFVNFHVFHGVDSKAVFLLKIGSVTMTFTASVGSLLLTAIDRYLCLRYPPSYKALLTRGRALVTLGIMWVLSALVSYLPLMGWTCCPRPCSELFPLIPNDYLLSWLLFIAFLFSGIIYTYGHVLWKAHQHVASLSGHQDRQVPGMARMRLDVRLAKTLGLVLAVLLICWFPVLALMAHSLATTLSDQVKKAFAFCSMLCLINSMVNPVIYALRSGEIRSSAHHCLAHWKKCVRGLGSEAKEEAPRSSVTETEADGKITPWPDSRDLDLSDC

[10] = target: Neurotensin receptor type 1 (Homo sapiens) (UniProt P30989); experiment: Displacement of [125I]Tyr3-neurotensin from human recombinant Neurotensin receptor at 10 uM incubated for 60 mins by radiometric based scintillation counter assay relative to control
Sequence of Neurotensin receptor type 1 (Homo sapiens) (P30989 whole entry): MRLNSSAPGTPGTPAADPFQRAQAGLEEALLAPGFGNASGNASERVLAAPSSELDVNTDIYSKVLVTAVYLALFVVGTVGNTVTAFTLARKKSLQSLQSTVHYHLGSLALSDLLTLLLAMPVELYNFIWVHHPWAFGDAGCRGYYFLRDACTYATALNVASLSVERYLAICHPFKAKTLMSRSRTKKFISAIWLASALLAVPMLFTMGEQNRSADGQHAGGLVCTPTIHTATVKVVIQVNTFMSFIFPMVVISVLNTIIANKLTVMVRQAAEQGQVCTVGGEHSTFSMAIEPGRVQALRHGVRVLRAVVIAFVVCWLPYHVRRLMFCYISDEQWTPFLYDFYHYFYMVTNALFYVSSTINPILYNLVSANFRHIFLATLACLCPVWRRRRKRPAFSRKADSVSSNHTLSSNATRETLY

[11] = target: Adrenergic receptor alpha-1 (Rattus norvegicus) (UniProt P15823+P23944+P43140); experiment: Displacement of [3H]prazosin from rat brain alpha1-adrenoceptor at 10 uM incubated for 60 mins by radiometric based scintillation counter assay relative to control; format: tissue-based
[12] = target: D(1A) dopamine receptor (Homo sapiens) (UniProt P21728); experiment: Displacement of [3H]SCH 23390 from human recombinant dopamine D1 receptor at 10 uM incubated for 60 mins by radiometric based scintillation counter assay relative to control
Sequence of D(1A) dopamine receptor (Homo sapiens) (P21728 whole entry): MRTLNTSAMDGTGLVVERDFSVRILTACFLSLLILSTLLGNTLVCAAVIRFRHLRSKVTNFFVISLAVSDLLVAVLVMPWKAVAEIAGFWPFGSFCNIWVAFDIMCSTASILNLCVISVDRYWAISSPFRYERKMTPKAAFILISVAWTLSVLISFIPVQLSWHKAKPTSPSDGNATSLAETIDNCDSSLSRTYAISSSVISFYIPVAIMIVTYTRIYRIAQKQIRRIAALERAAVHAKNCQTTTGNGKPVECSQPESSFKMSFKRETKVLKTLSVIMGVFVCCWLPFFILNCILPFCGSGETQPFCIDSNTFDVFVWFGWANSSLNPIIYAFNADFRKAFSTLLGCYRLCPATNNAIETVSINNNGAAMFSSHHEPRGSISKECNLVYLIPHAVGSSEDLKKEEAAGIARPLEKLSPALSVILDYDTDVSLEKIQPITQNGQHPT

[13] = target: T1, Endothelin-1 receptor (Rattus norvegicus); experiment: In vivo antagonist activity to ETA receptor in endothelin-1 induced Sprague-Dawley rat assessed as inhibition of transient depressor response at 100 mg/kg, po administered for 4 hrs; format: functional, organism-based
[14] = Half life in cynomolgus monkey at 5 mg/kg, po administered for 12 hrs by HPLC analysis; format: ADME, organism-based, Macaca fascicularis; conditions: in vivo
[15] = Volume of distribution at steady state during terminal phase in Sprague-Dawley rat at 5 mg/kg, iv administered for 12 hrs by reverse phase HPLC-UV analysis; format: ADME, organism-based; conditions: in vivo, read-out: Vbeta
[16] = target: Muscarinic acetylcholine receptor M5 (Homo sapiens) (UniProt P08912); experiment: Displacement of [3H]4-DAMP from human recombinant muscarinic M5 receptor at 10 uM incubated for 60 mins by radiometric based scintillation counter assay relative to control
Sequence of Muscarinic acetylcholine receptor M5 (Homo sapiens) (P08912 whole entry): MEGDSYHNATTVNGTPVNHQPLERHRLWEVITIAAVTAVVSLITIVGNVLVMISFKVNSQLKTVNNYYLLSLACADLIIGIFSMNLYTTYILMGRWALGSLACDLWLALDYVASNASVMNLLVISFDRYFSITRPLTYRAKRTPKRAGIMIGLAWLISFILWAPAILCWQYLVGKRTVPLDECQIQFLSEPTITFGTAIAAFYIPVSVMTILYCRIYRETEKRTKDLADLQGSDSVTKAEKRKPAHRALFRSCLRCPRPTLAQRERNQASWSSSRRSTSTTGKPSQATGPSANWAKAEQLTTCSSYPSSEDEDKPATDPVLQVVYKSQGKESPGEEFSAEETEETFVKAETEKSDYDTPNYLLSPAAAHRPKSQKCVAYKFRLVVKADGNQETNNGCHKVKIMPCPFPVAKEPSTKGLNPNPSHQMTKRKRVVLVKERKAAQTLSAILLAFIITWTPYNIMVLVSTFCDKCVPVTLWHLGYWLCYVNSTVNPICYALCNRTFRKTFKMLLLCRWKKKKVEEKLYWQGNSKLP

[17] = target: P2X receptor (Rattus norvegicus) (UniProt P51579+P49653+P51578+Q64663+P47824+P51577+P49654); experiment: Displacement of [3H]alpha,beta -MeATP from rat bladder P2X-purinergic receptor at 10 uM incubated for 120 mins by radiometric based scintillation counter assay relative to control; format: protein assay
Homo sapiens [18] = species on record: Homo sapiens; experiment: Inhibition of human galanin receptor at 10 uM by radioligand binding assay relative to control
[19] = target: Cannabinoid receptor 1 (Homo sapiens) (UniProt P21554); experiment: Displacement of [3H]CP 55940 from human recombinant cannabinoid CB1 receptor at 10 uM incubated for 30 mins by radiometric based scintillation counter assay relative to control
Sequence of Cannabinoid receptor 1 (Homo sapiens) (P21554 whole entry): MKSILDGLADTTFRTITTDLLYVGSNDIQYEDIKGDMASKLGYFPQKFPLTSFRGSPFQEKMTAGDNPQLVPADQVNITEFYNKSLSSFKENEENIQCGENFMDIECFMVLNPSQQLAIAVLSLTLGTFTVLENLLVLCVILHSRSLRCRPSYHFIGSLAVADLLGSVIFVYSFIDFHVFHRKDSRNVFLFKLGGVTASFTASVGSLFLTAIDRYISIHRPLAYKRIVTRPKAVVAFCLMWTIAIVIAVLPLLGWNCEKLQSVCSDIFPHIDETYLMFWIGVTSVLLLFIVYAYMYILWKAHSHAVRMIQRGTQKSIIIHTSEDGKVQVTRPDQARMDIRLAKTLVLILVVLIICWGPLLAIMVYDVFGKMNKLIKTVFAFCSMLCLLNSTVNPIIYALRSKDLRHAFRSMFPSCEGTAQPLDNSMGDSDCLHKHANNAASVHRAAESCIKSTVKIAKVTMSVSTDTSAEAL

Mus musculus = species on record: Mus musculus; experiment: Displacement of [125I]Tyr11-somatostatin-14 from mouse Somatostatin receptor at 10 uM incubated for 60 mins by radiometric based scintillation counter assay relative to control
Rattus norvegicus [20] = species on record: Rattus norvegicus; experiment: Displacement of [3H]batrachotoxinin from rat brain Voltage-gated Na+ channel (site 2) at 10 uM incubated for 60 mins by radiometric based scintillation counter assay relative to control; format: tissue-based
[21] = target: Substance-P receptor (Homo sapiens) (UniProt P25103); experiment: Displacement of [125I]-Substance P LYS3 from human Neurokinin-1 receptor at 10 uM incubated for 30 mins by radiometric based scintillation counter assay relative to control
Sequence of Substance-P receptor (Homo sapiens) (P25103 whole entry): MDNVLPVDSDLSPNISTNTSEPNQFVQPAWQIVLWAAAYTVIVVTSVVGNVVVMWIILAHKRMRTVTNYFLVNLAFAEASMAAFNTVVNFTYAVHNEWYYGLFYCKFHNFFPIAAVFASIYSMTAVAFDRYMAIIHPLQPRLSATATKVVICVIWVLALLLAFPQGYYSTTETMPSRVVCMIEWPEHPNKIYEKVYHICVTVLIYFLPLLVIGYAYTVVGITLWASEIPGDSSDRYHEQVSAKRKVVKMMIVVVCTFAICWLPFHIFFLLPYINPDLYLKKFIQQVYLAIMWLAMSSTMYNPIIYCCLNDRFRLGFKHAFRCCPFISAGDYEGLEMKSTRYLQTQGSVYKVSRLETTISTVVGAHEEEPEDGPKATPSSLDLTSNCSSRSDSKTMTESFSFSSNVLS

[22] = target: T1, Endothelin-1 receptor (Rattus norvegicus); experiment: In vivo antagonist activity to ETA receptor in endothelin-1 induced Sprague-Dawley rat assessed as reduction of vasopressor response at 30 mg/kg, po administered for 4 to 8 hrs; format: functional, organism-based; conditions: time 4-8 hrs
[23] = target: Muscarinic acetylcholine receptor M3 (Homo sapiens) (UniProt P20309); experiment: Displacement of [3H]4-DAMP from human recombinant muscarinic M3 receptor at 10 uM incubated for 60 mins by radiometric based scintillation counter assay relative to control
[24] = target: Neuromedin-K receptor (Homo sapiens) (UniProt P29371); experiment: Displacement of [3H]SR 142801 from human recombinant NK3 tachykinin receptor at 10 uM incubated for 120 mins by radiometric based scintillation counter assay relative to control
Sequence of Neuromedin-K receptor (Homo sapiens) (P29371 whole entry): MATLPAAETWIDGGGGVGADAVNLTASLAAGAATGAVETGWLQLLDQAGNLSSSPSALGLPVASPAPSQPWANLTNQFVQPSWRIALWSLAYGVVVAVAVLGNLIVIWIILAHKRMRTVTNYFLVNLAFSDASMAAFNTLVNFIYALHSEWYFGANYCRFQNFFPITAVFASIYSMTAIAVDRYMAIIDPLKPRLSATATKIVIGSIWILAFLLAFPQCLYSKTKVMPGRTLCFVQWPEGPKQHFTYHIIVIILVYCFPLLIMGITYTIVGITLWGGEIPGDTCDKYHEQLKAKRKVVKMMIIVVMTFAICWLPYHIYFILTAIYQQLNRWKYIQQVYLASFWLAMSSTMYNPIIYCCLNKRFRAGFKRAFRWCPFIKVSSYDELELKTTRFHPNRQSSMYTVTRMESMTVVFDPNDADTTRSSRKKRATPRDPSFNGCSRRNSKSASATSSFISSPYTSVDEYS

[25] = target: Vasopressin V1a receptor (Homo sapiens) (UniProt P37288); experiment: Displacement of [3H]AVP from human recombinant Vasopressin V1a receptor at 10 uM incubated for 60 mins by radiometric based scintillation counter assay relative to control
Sequence of Vasopressin V1a receptor (Homo sapiens) (P37288 whole entry, looked up): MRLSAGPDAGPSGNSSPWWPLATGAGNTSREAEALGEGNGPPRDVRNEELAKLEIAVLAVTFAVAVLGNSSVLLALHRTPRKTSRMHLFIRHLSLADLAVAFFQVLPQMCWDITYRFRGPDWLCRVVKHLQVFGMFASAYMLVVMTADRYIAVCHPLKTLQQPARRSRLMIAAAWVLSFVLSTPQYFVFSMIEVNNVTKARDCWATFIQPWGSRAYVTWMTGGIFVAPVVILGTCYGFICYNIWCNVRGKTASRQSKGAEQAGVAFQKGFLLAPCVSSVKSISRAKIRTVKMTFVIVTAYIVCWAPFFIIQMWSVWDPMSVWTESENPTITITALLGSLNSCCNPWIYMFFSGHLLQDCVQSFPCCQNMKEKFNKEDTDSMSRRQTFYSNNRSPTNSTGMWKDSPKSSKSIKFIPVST

[26] = Cmax in cynomolgus monkey at 5 mg/kg, po administered for 12 hrs by HPLC analysis; format: ADME, organism-based, Macaca fascicularis; conditions: in vivo
Homo sapiens [27] = species on record: Homo sapiens; experiment: Displacement of [125I]hCGRPalpha from calcitonin gene-related peptide (unknown origin) at 10 uM incubated for 90 mins by radiometric based scintillation counter assay relative to control

Question: For `CCCCN(CCCC)C(=O)CN1[C@H](c2cc(OC)c3c(c2)OCO3)C[C@@H](C(=O)O)[C@@H]1CC(C)(C)CCC`, which Activity [1] is on record?
Answer: Dose-Dependent Effect

Question: And the inhibition (Rattus norvegicus [2])?
Answer: < 10%

Question: What about the half-life [3] of the same compound?
Answer: 2.5 h

Question: What about the inhibition (Homo sapiens [4]) of the same compound?
Answer: < 10%

Question: And the bioavailability [5]?
Answer: 47.7%

Question: What about the inhibition [6] of the same compound?
Answer: < 10%

Question: What about the inhibition [7] of the same compound?
Answer: < 10%

Question: What about the inhibition [8] of the same compound?
Answer: < 10%

Question: And the inhibition [9]?
Answer: 11%

Question: And the inhibition [10]?
Answer: < 10%

Question: What about the inhibition [11] of the same compound?
Answer: < 10%

Question: What about the inhibition [12] of the same compound?
Answer: 14%

Question: What about the Activity [13] of the same compound?
Answer: Active

Question: And the half-life [14]?
Answer: 1 h

Question: What about the Vd [15] of the same compound?
Answer: 3.7 L/kg

Question: What about the inhibition [16] of the same compound?
Answer: < 10%

Question: What about the inhibition [17] of the same compound?
Answer: 37%

Question: What about the inhibition (Homo sapiens [18]) of the same compound?
Answer: < 10%

Question: And the inhibition [19]?
Answer: < 10%

Question: What about the inhibition (Mus musculus) of the same compound?
Answer: < 10%

Question: And the inhibition (Rattus norvegicus [20])?
Answer: < 10%

Question: What about the inhibition [21] of the same compound?
Answer: < 10%

Question: What about the Activity [22] of the same compound?
Answer: Active

Question: And the inhibition [23]?
Answer: < 10%

Question: And the inhibition [24]?
Answer: < 10%

Question: What about the inhibition [25] of the same compound?
Answer: < 10%

Question: What about the Cmax [26] of the same compound?
Answer: 1100 ng/mL

Question: And the inhibition (Homo sapiens [27])?
Answer: < 10%
